Test system: Plasmodium berghei
Assay: Luciferase/luciferin-expressing antifolate-resistant parasites were used to infect a culture of HepG2 cells that were pre-incubated with compounds. Infected hepatocytes emit light due to the luciferase reaction. Assay results are presented as the percent inhibition of light emission compared to control. […]
Type: functional
Conditions: sporozoite; for IC90: read-out: LUCIFERASE INFECTION ASSAY - IC90
[1] = read-out: LUCIFERASE INFECTION ASSAY - IC50

Compound | IC90 | IC50 [1] | also measured
CNc1snc(C)c1C(=O)NCc1ccc(COCC(F)(F)F)cc1 | 1.72 µM |  | IC50 (HEPG2TOX_HILL_SLOPE 1.16, HEPG2TOX_R_SQUARED 0.865, PBLUC_HILL_SLOPE 3.24, 27.9, PBLUC_R_SQUARED 0.892, 0.904, read-out: LUCIFERASE INFECTION ASSAY - IC50): 1.12 µM
CC(C)C1NC(=O)N(CCCOc2ccc(C(C)(C)C)cc2)C1=O (stereo unspecified) | > 10 µM | 9.61 µM | 
Cc1nc(Sc2nnnn2C)c2c3c(sc2n1)CCC3 | 4.17 µM |  | IC50 (HEPG2TOX_HILL_SLOPE 11.4, HEPG2TOX_R_SQUARED 0.852, PBLUC_HILL_SLOPE 13, PBLUC_R_SQUARED 0.536, read-out: LUCIFERASE INFECTION ASSAY - IC50): 3.52 µM
CN1/C(=C\C=N\NC(=O)c2cccnc2)C(C)(C)c2ccccc21 | > 10 µM |  | IC50 (PBLUC_HILL_SLOPE 4.32, PBLUC_R_SQUARED 0.562, read-out: LUCIFERASE INFECTION ASSAY - IC50): 7.23 µM
O=C(O)C1CC=CCC1C(=O)NN=c1nc[nH]c2ccccc12 (stereo unspecified) | > 10 µM | > 10 µM | 
COc1ccc(N/N=C(\C=N\O)C(=O)c2ccccc2)cc1 | 5.58 µM |  | IC50 (HEPG2TOX_HILL_SLOPE 1.74, HEPG2TOX_R_SQUARED 0.984, PBLUC_HILL_SLOPE 2.38, PBLUC_R_SQUARED 0.768, read-out: LUCIFERASE INFECTION ASSAY - IC50): 2.22 µM
Clc1ccc(-c2cn3c(-c4ccc5c(c4)OCO5)cnc3cn2)cc1 | 6.85 µM |  | IC50 (HEPG2TOX_HILL_SLOPE 1.51, HEPG2TOX_R_SQUARED 0.989, PBLUC_HILL_SLOPE 1.79, PBLUC_R_SQUARED 0.647, read-out: LUCIFERASE INFECTION ASSAY - IC50): 2.01 µM
C=CCn1c(SCc2c(C)noc2C)nc2scc(C3CC3)c2c1=O | 0.0519 µM |  | IC50 (HEPG2TOX_HILL_SLOPE 0.626, HEPG2TOX_R_SQUARED 0.778, PBLUC_HILL_SLOPE 13, PBLUC_R_SQUARED 0.397, read-out: LUCIFERASE INFECTION ASSAY - IC50): 0.0439 µM
CC(C)(C)c1ccc(OCC(=O)Nc2cnn(C(C)(C)C(=O)NCc3ccccc3)c2)cc1 | > 10 µM | > 10 µM | 
CC(=O)c1c(F)cccc1N1CCC(c2nc3ccccc3[nH]2)CC1 | 5.87 µM | 2.87 µM | 
COC(=O)c1cccc(NC(=S)NC(=O)c2ccc(C(C)(C)C)cc2)c1 | > 8.91 µM | > 8.91 µM | 
COc1cc(C(=O)N2CC=C(c3c[nH]c4ccccc34)CC2)ccc1C | > 10 µM | > 10 µM | 
CCN(c1ccccc1)S(=O)(=O)c1ccc(C(=O)NCC(c2ccccc2OC)N2CCCC2)cc1 (stereo unspecified) | 3.69 µM |  | IC50 (HEPG2TOX_HILL_SLOPE 12.4, HEPG2TOX_R_SQUARED 0.631, PBLUC_HILL_SLOPE 22.9, PBLUC_R_SQUARED 0.104, read-out: LUCIFERASE INFECTION ASSAY - IC50): 3.36 µM
CC(=O)Nc1cccc(-c2ccc3ncc(-c4cccs4)n3n2)c1 | > 10 µM |  | IC50 (HEPG2TOX_HILL_SLOPE 0.699, HEPG2TOX_R_SQUARED 0.927, PBLUC_HILL_SLOPE 0.967, PBLUC_R_SQUARED 0.554, read-out: LUCIFERASE INFECTION ASSAY - IC50): 2.81 µM
CC(NC(=O)COc1ccc(-c2nnco2)cc1)c1ccc(Cl)cc1Cl (stereo unspecified) | > 10 µM |  | IC50 (FFLUC_HILL_SLOPE 0.318, FFLUC_R_SQUARED 0.016, read-out: LUCIFERASE INFECTION ASSAY - IC50): > 10 µM
CCOC(=O)C1(C)CCCN1C(=O)c1cccs1 (stereo unspecified) | > 12.3 µM | > 12.3 µM | 
CO/N=C1\CC(C)(C)Cc2c(-c3ccn(C(=O)Nc4ccc(Cl)cc4)n3)sc(SC)c21 | > 6.95 µM | > 6.95 µM | 
COc1ccccc1-c1ccc2ncc(-c3cccnc3)n2n1 | 4.41 µM |  | IC50 (HEPG2TOX_HILL_SLOPE 0.11, HEPG2TOX_R_SQUARED 0.0747, PBLUC_HILL_SLOPE 11.9, PBLUC_R_SQUARED 0.526, read-out: LUCIFERASE INFECTION ASSAY - IC50): 3.67 µM
Cc1ccc(S(=O)(=O)c2ccc(NNS(=O)(=O)c3cccc([N+](=O)[O-])c3)cc2)cc1 | > 10 µM | > 10 µM | 
Cc1ccc(C(CCNCc2ccc(F)cc2)c2ccco2)cc1 (stereo unspecified) | 0.384 µM |  | IC50 (HEPG2TOX_HILL_SLOPE 46.4, HEPG2TOX_R_SQUARED 0.442, PBLUC_HILL_SLOPE 99.4, PBLUC_R_SQUARED 0.619, read-out: LUCIFERASE INFECTION ASSAY - IC50): 0.376 µM
CC1CSC(N(C(=O)COc2ccccc2F)c2ccc(Cl)cc2)=N1 (stereo unspecified) | > 10 µM | > 10 µM | 
Cn1c(-c2cccc(F)c2)nc2cnc(-c3cccc(Cl)c3)cc21 | > 10 µM |  | IC50 (HEPG2TOX_HILL_SLOPE 19.5, HEPG2TOX_R_SQUARED 0.312, read-out: LUCIFERASE INFECTION ASSAY - IC50): > 10 µM

Compound | IC90 | IC50 [1] | also measured
CC(NCC(O)COc1ccccc1C(C)(C)C)c1ccccc1 (stereo unspecified) | > 9.07 µM |  | IC50 (PBLUC_HILL_SLOPE 2.67, PBLUC_R_SQUARED 0.166, read-out: LUCIFERASE INFECTION ASSAY - IC50): 4.35 µM
CCCC1C/C(=C/c2ccc(C(=O)NC)cc2)C(=O)/C(=C/c2ccc(C(=O)NC)cc2)C1 (stereo unspecified) | 3.86 µM | 3.29 µM | 
N#C/C(=N\Nc1ccc(Cl)cc1)C(=O)c1ccc(Cl)cc1 | 2.91 µM |  | IC50 (HEPG2TOX_HILL_SLOPE 1.51, HEPG2TOX_R_SQUARED 0.876, PBLUC_HILL_SLOPE 2.05, PBLUC_R_SQUARED 0.674, read-out: LUCIFERASE INFECTION ASSAY - IC50): 0.996 µM
Clc1ccc(-c2nc(-c3ccccc3)c(-c3ccccc3)n2CCc2ccc(Cl)cc2Cl)cc1 | > 10 µM |  | IC50 (PBLUC_HILL_SLOPE 13, PBLUC_R_SQUARED 0.179, read-out: LUCIFERASE INFECTION ASSAY - IC50): 9.63 µM
O=[N+]([O-])c1cnc(Sc2nc3cc(Cl)ccc3s2)s1 | > 10 µM |  | IC50 (FFLUC_HILL_SLOPE 97.7, FFLUC_R_SQUARED 0.0466, read-out: LUCIFERASE INFECTION ASSAY - IC50): > 10 µM
Nc1ncc(-c2ccc(-c3ccccc3)cc2F)cc1-c1cncc2ccccc12 | > 8.43 µM |  | IC50 (PBLUC_HILL_SLOPE 1.93, PBLUC_R_SQUARED 0.0355, read-out: LUCIFERASE INFECTION ASSAY - IC50): > 8.43 µM
COc1cc(OC)cc(C2c3c(C)nn(-c4ccccc4)c3NC(=O)C2NC(=O)c2ccccc2)c1 (stereo unspecified) | > 10 µM | > 10 µM | 
CCCCC(CC)C(=O)Nc1nc2ccccn2c1C(=O)NC1CCCCC1 (stereo unspecified) | > 8.58 µM |  | IC50 (PBLUC_HILL_SLOPE 8.64, PBLUC_R_SQUARED 0.333, read-out: LUCIFERASE INFECTION ASSAY - IC50): 8.01 µM
Cc1c(Cl)c(=O)[nH]c2ccccc12 | > 17 µM |  | IC50 (HEPG2TOX_HILL_SLOPE 0.732, HEPG2TOX_R_SQUARED 0.944, PBLUC_HILL_SLOPE 0.944, PBLUC_R_SQUARED 0.141, read-out: LUCIFERASE INFECTION ASSAY - IC50): > 17 µM
Cc1nc(NC(=O)c2cnn(C)c2)sc1Cc1ccccc1Cl | 3.3 µM |  | IC50 (HEPG2TOX_HILL_SLOPE 2.29, HEPG2TOX_R_SQUARED 0.901, PBLUC_HILL_SLOPE 11.8, PBLUC_R_SQUARED 0.668, read-out: LUCIFERASE INFECTION ASSAY - IC50): 2.74 µM
CCOc1ccc(C(C)=O)cc1CSc1nnc(-c2ccc(F)cc2)c2ccccc12 | > 10 µM | > 10 µM | 
COc1ccccc1-[n+]1c(C)cc(C=C2Sc3ccc4ccccc4c3N2C)cc1C | 0.611 µM |  | IC50 (HEPG2TOX_HILL_SLOPE 0.863, HEPG2TOX_R_SQUARED 0.853, PBLUC_HILL_SLOPE 2.28, PBLUC_R_SQUARED 0.851, read-out: LUCIFERASE INFECTION ASSAY - IC50): 0.233 µM
CCCC(CNC(=O)COC(=O)c1ccc2[nH]c3c(c2c1)CCCC3)c1ccc(Cl)cc1Cl (stereo unspecified) | > 10 µM |  | IC50 (HEPG2TOX_HILL_SLOPE 0.187, HEPG2TOX_R_SQUARED 0.0336, read-out: LUCIFERASE INFECTION ASSAY - IC50): > 10 µM
CCCn1c(NC(=O)c2oc3ccccc3c2COCC)nc2ccccc21 | > 10 µM |  | IC50 (PBLUC_HILL_SLOPE 8.76, PBLUC_R_SQUARED 0.513, read-out: LUCIFERASE INFECTION ASSAY - IC50): 8.84 µM
CNc1nnc(Sc2nc(CN3CCCCC3)nc3scc(-c4ccccc4)c23)s1 | 3.67 µM |  | IC50 (HEPG2TOX_HILL_SLOPE 0.991, HEPG2TOX_R_SQUARED 0.829, PBLUC_HILL_SLOPE 15.5, PBLUC_R_SQUARED 0.389, read-out: LUCIFERASE INFECTION ASSAY - IC50): 3.19 µM
CCCNC(=O)COc1ccc(Nc2ccccc2)cc1 | > 10 µM | > 10 µM | 
Cc1c(C(=O)Nc2nc(CN3CCCC(C)C3)cs2)oc2ccc(Cl)cc12 (stereo unspecified) | > 10 µM | > 10 µM | 
N#CC(C#N)=NNc1ccc(OC(F)(F)F)cc1 | > 13 µM |  | IC50 (HEPG2TOX_HILL_SLOPE 11.1, HEPG2TOX_R_SQUARED 0.969, PBLUC_HILL_SLOPE 0.201, PBLUC_R_SQUARED 0.0877, read-out: LUCIFERASE INFECTION ASSAY - IC50): 0.245 µM
COc1ccc(CCN2C(=O)N(C(C)C)C(=O)C23CCN(Cc2cc4ccccc4[nH]2)CC3)cc1 | 6.63 µM |  | IC50 (HEPG2TOX_HILL_SLOPE 8.55, HEPG2TOX_R_SQUARED 0.942, PBLUC_HILL_SLOPE 15.5, PBLUC_R_SQUARED 0.628, read-out: LUCIFERASE INFECTION ASSAY - IC50): 5.75 µM
CC(C)(C)c1ccc(-n2c(SCc3ccc(Cl)cc3)nnc2-c2ccccc2Cl)cc1 | > 7.04 µM |  | IC50 (PBLUC_HILL_SLOPE 3.18, PBLUC_R_SQUARED 0.744, read-out: LUCIFERASE INFECTION ASSAY - IC50): > 7.04 µM
Cc1cnc(NC(=O)c2ccc(CN3CCCCC3)cc2)s1 | > 10 µM |  | IC50 (FFLUC_HILL_SLOPE 0.622, FFLUC_R_SQUARED 0.84, HEPG2TOX_HILL_SLOPE 8.37, HEPG2TOX_R_SQUARED 0.336, PBLUC_HILL_SLOPE 1, PBLUC_R_SQUARED 0.657, read-out: LUCIFERASE INFECTION ASSAY - IC50): 1.28 µM

Source: ChEMBL document CHEMBL4483862, “Open-source discovery of chemical leads for next-generation chemoprotective antimalarials” (2018)
